According to patent publication US20250269022A1, “ASSESSING AND TREATING CANCER” (Mayo Foundation for Medical Education and Research, priority 2021, published 2025):
“Also recorded” adds a separate entry of the source. Read-outs that look alike come from different tables or passages of the source.

Experiments:
CART cells [1] = assay: Proliferation assay of CART cells co-cultured with JeKo-1 cells, with navitoclax or venetoclax; format: cell-based
Description: Longitudinal navitoclax treatment of CART cells. […] Longitudinal treatments included two parts.
For proliferation assays, effector cells (CART cells), and irradiated target cells (CD19+ JeKo 1 cells) were co-cultured at different ratios and with different concentrations of the compounds. Cells were co-cultured for 3-5 days, and then cells were harvested and surface staining with antihCD3 (eBioscience, San Diego, CA, USA) and LIVE/DEAD™ Fixable Aqua Dead Cell Stain Kit (Invitrogen, Carlsbad, CA, USA) was performed.

JeKo-1 cells [2] = assay: Cytotoxicity (killing) assay of CART cells against luciferase+ JeKo-1 cells, with senolytics
Description: D8 CART cells were treated with navitoclax (0 μM, 0.5 μM, 1 μM, 2 μM, or 4 μM) for 24 hours and then divided into two groups. In the first group, navitoclax was washed away for proliferation and cytotoxicity assays. In the second group, navitoclax treatment was maintained during proliferation and cytotoxicity assays.
Longitudinal navitoclax treatment of CART cells. D15 and D22 CART cells were generated to mimic possible dysfunctions (e.g., exhaustion, senescence, etc.) that CART cells can develop. Serial activation of CART cells can induce T cell senescence during CART cell generation. This experiment was designed to selectively remove senescing CART cells during CART cell proliferation. During this experiment CART cells were pretreated with navitoclax, the proliferation, EDU, and cytotoxicity assays were done in the absence of navitoclax. Longitudinal treatments included two parts. Part I was a typical CART cell production protocol except for addition of navitoclax at D7 for 24 hours. Briefly, CART cells were activated on day 1, transduced on day 2, and debeaded on day 6. On day 7, CART cells were treated with navitoclax (0 μM, 0.125 μM, 0.25 μM, 0.5 μM, 0.75 μM, 1 μM, or 2 μM). On day 8, the navitoclax was washed away, and the CART cells were prepared for cytotoxicity assays and proliferation assays. For part II, JeKo-1 UDT was added to the CART cells on days 8 and 10, the media was replaced on day 12, and navitoclax was added on day 13. On day 14, the navitoclax was washed away, and the CART cells were prepared for cytotoxicity assays and proliferation assays or JeKo-1 IR was added and the CART cells were prepared for an EdU assay. The CART cells were provided several resting times after being activated by JeKo-1 to provide plenty of resting time to differentiate reversible exhaustion and irreversible T cell senescence. This assay focuses on D8 (freshly generated CART cells), D15 (D8 cells activated with JeKo-1 for a week as indicated as part II in the figure), and D22 CART cells (additional activation summarized in part II on D15 CART cells).
For killing assays, the CD19+ Luciferase+ mantle cell lymphoma cell like JeKo-1 cells were incubated with effector T cells for 24, 48, or 72 hours. Killing was calculated by bioluminescence imaging on a Xenogen IVIS-200 Spectrum camera (PerkinElmer, Hopkinton, MA, USA) as a measure of residual live cells. Samples were treated with 1 μL D-luciferin (30 μg/mL) per 100 μL sample volume (Gold Biotechnology, St. Louis, MO, USA), for 10 minutes prior to imaging.

CART cells [3] = assay: EdU assay of cycling CART cells; format: cell-based; settings: navitoclax treated
Description: Longitudinal navitoclax treatment of CART cells. […] […] Longitudinal treatments included two parts. […] Cells were co-cultured for 3-5 days, and then cells were harvested and surface staining with […]3 (eBioscience, San Diego, CA, USA) and LIVE/DEADTM Fixable Aqua Dead Cell Stain Kit (Invitrogen, Carlsbad, CA, USA) was performed.

JeKo1 cell line = assay: In vivo JeKo1 xenograft with navitoclax-treated CART cells; parameters: species or system NSG mice
Description: NSG mice were engrafted with the luciferase positive, CD19+ JeKo1 cell line I.V. One week later, mice underwent bioluminescence imaging (BLI) to determine the level of the disease and then randomized to treatment with CART cells. Mice then underwent weekly BLI to measure disease burden and were followed for survival.

JeKo-1 cells [4] = assay: CART19 killing of luciferase+ JeKo-1 cells in combination with small molecules; format: cell-based
Description: CART19 cells were cultured in combination with different molecules at the indicated ratios/concentration, and in combination with the luciferase+ JeKo-1 cells at the indicated E:T ratios. Killing was determined after 24 hours using bioluminescence imaging.

PD-L1 = molecular target: T1, PD-L1 (Homo sapiens, UniProt Q9NZQ7); assay: CART19 antigen-specific proliferation with PD-L1 blockade in presence of PD-L1high CLL-derived EVs; format: cell-based; settings: PD-L1high CLL-derived EVs 100:1, 6 hours, JeKo-1 at E:T 5:1, antibody 20 μg/mL
T1 construct: These PPP preparations from the peripheral blood of untreated CLL patients are the source of the samples called CLL-derived EVs; from tissue; host or cells: extracellular vesicles in platelet-poor plasma of untreated CLL patients, co-cultured with CART19 cells and then JeKo-1 cells
Description: CART19 and JeKo-1 or JeKo-1 cells irradiated at 120 Gy were cocultured at a 1:1 ratio with or without CLL-derived EVs. T cells for functional assays were cultured in T cell medium containing X-VIVO 15 (Lonza, Walkersville, MD, USA), 10% human serum albumin (Innovative Research, Novi, MI, USA), and 1% penicillin-streptomycin-glutamine (Gibco, Gaithersburg, MD, USA). EVs were cocultured with CART19 cells at 100:1, 10:1, 5:1, and 1:1 EV/CART cell ratios using three biological replicates of CLL-derived EVs at 37° C., 5% CO2, and then co-cultured with primary CLL cells or JeKo-1 cells as indicated in the specific experiment. Cell supernatant was collected at 24 hours, and cells were analyzed by flow cytometry. To assess killing and proliferation, UTD T cells, CART19 cells, and CART19 cells co-cultured with CLL-derived EVs at a 100:1 EV/CART cell ratio were incubated at 37° C., 5% CO2 for 6 hours before adding JeKo-1 target cells. […] Cells were analyzed by flow cytometry after 48 hours of incubation.

T1 sequence (Q9NZQ7 19-290): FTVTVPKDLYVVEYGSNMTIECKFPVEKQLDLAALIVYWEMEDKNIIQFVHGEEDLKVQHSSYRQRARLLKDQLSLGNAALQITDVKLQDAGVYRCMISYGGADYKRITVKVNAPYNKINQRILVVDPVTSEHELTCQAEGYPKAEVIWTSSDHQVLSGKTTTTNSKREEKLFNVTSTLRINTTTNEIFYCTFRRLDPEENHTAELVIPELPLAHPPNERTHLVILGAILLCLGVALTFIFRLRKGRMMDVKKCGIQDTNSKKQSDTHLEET

CC1(C)CCC(c2ccc(Cl)cc2)=C(CN2CCN(c3ccc(C(=O)NS(=O)(=O)c4ccc(N[C@H](CCN5CCOCC5)CSc5ccccc5)c(S(=O)(=O)C(F)(F)F)c4)cc3)CC2)C1 [navitoclax] was tested, and the “CART cell proliferation against JeKo-1 in combination with senolytic” value (CART cells [1]; CART cells co-cultured with JeKo-1 in presence of drug) was “decreased CART cell proliferation”, the CART cell proliferation (CART cells [1]; D8 CART cells continuously treated with navitoclax, co-culture with JeKo-1, vs untreated CART cells) was “decreased proliferation” and the “D22 CART cell proliferation” value (CART cells [1]; longitudinal navitoclax treatment vs navitoclax untreated CART cells, in vitro) was “increase in D22 CART proliferation”. The “CART cell proliferation over time” value (CART cells [1]; longitudinal navitoclax treatment, D8, D15, D22) was “decreased proliferation of CART cells through time; also recorded: decreases over time”, the “Cytotoxicity of drug alone against JeKo-1” value (JeKo-1 cells [2]; 0:1 E:T ratio (no CART)) was “cytotoxic against JeKo-1” and the “CART cell cytotoxicity against JeKo-1 in combination with senolytic” value (JeKo-1 cells [2]; D8 CART cells co-cultured with JeKo-1 and drug, 48 hours) was “increased CART cell cytotoxicity”. For the same compound, the “CART cell cytotoxicity against JeKo-1” value (JeKo-1 cells [2]; navitoclax maintained in assay, higher navitoclax concentrations) was “decreased CART cell cytotoxicity”, the “CART cell cytotoxicity against JeKo-1” value (JeKo-1 cells [2]; navitoclax pre-treatment 24 hours, assay without navitoclax) was “did not result in different cytotoxicity” and the “EdU positivity of CART cells” value (CART cells [3]; D8 and D22 CART cells) was “similar”. For the same compound, the “EdU positivity of CART cells” value (CART cells [3]; D15 CART cells) was “decreased”, the “Tumor burden of mice” value (JeKo1 cell line; D22 CART cells treated with or without navitoclax, 22 days after CART cell transplantation) was “not different” and the “Antitumor activity of CART cells in vivo” value (JeKo1 cell line; navitoclax pretreatment of CART cells) was “did not increase antitumor activity; also recorded: did not improve CART cell activity”.

For O=S(=O)(c1cccc2cnccc12)N1CCCNCC1 [fasudil], the “CART19 antigen specific killing” value (JeKo-1 cells [4]; combination with CART19 cells, 24 hours, bioluminescence) was “improved CART19 antigen specific killing”.

In the case of atezolizumab [anti-PD-L1 antibody], the “Reversal of EV-mediated inhibition of CART19 antigen-specific proliferation” value (PD-L1) is reported as “did not improve” and the “Reversal of EV-mediated inhibition of CART19 antigen-specific proliferation” value (PD-L1; listed as PD-L1 blocking antibodies) is reported as “no statistically significant reversal”.

For CC1(C)CCC(CN2CCN(c3ccc(C(=O)NS(=O)(=O)c4ccc(NCC5CCOCC5)c([N+](=O)[O-])c4)c(Oc4cnc5[nH]ccc5c4)c3)CC2)=C(c2ccc(Cl)cc2)C1 [venetoclax], the “CART cell cytotoxicity against JeKo-1 in combination with senolytic” value (JeKo-1 cells [2]) was “increased CART cell cytotoxicity”.

For CC(C)(CO)[C@@H](O)C(=O)NCCC(=O)NCCSSCCNC(=O)CCNC(=O)[C@H](O)C(C)(C)CO [panthethine, D-pantethine], the “CART19 antigen specific killing” value (JeKo-1 cells [4]) was “improved CART19 antigen specific killing”.
